Tested on: TSLP
Experiment: TNF-α-induced TSLP in HaCaT cells (ELISA)
Assay type: cell-based, human
Settings: HaCaT culture supernatant, TNF-α stimulated, 1 h pretreatment, equal amounts of compounds
Description: Human keratinocyte HaCaT cells (obtained from the Korean Cell Line Bank) were seeded in a 12-well plate at an initial density of 2×10^5 cells/well and cultured at 37° C. for 16 to 24 hours. FK506 (Sigma), compounds 27 and 29 of the present invention were then added to the HaCaT cell culture medium at final concentrations of 0, 1, 2, 4, and 8 µg/mL, and the cells were cultured at 37° C. for 1 hour. Next, to induce TSLP, the culture medium was treated with TNF-α (Sigma-Aldrich, USA) to a final concentration of 100 ng/mL, and the cells were cultured for an additional 24 hours at 37° C. The culture supernatant was collected, and the amount of induced TSLP from HaCaT cells was determined using an ELISA kit (R&D Systems, USA) according to the manufacturer's instructions. […] Under the same conditions, to compare the TSLP reduction efficiency R.R. (Reduction rate) of compound 27, positive control compound and compound 29, equal amounts of compounds 27, 29 and FK506 (Sigma-Aldrich, USA) were pretreated for 1 hour. The amount of TSLP released into the culture supernatant from HaCaT cells stimulated by TNF-α was quantitatively analyzed and presented in Table 3 and FIG. 3 (c).

CCC(NC)C(=O)NCc1ccc(OCc2ccc(Cl)cc2)cc1 (racemic) [Compound 29, (R)/(S)—N-(4-((4-chlorobenzyl)oxy)benzyl)-2-(methylamino)butanamide]
R.R (Reduction rate) of TSLP: 58% | TSLP: 210 ng/mL

Source: patent US20250205195A1, “BENZYLOXY-BENZYLAMINYL AMINO ACID DERIVATIVE FOR ADJUSTING TSLP/TSLPR SIGNAL TRANSMISSION” (AMTIXBIO CO., LTD., priority 2021, published 2025)
